Patent US20220299532A1, “CORRECTING PROTEIN MISFOLDING IN DIABETES” (Sanford Burnham Prebys Medical Discovery Institute, priority 2019, published 2022)
Each block holds one compound with its values, some of them ahead of it.

Legend:
[1] = tested on: proinsulin complex formation; assay: Inhibition of ER to Golgi trafficking: proinsulin disulfide linked HMW complex formation; format: cell-based; settings: BFA treatment; with or without cycloheximide
Method: Also, it is contemplated that increased proinsulin synthesis predisposes to oligomer and HMW complex formation. To test the notion that increased proinsulin expression, as in T2D, may exacerbate abnormal disulfide formation, the effect of brefeldin A (BFA), which promotes retrograde COP1 trafficking from the cis-Golgi to the ER to prevent export of secretory proteins to the Golgi, and thus increasing their concentration in the ER, was tested.

mouse pancreatic islets = assay: Proinsulin disulfide-linked / HMW complexes in murine islets, SDS-PAGE immunoblot (CCI-17); format: cell-based
Method: Mouse pancreatic islet isolation: Mice were euthanized by CO2 narcosis as per an approved institutional animal protocol. The pancreas was rapidly excised, minced in ice-cold PBS, and digested in 4 mL of Collagenase P (Roche) 1.5 mg/mL in Hank's Balanced Salt Solution containing calcium and magnesium, in a shaking water bath for 30 min at 37° C. The digestion was terminated in 40 mL ice-cold PBS (—Ca/—Mg) and the digested tissue washed twice in this buffer. The sedimented tissue digest was then overlaid with 3 mL Histopaque-1077 and further overlayed with 6 mL ice cold PBS (—Ca/—Mg) before centrifugation (3000 rpm for 20 min at 10° C. with no brake) and transfer of the midlayer of the Histopaque gradient to a 15 ml tube for two further washes in ice-cold PBS. Finally, the sedimented tissue was transferred to a petri dish in ice-cold RPMI-1640 buffer and islets hand-picked to purity. In experiments involving drug or compound treatment, the islets were finally recovered overnight in RPMI-1640 supplemented with 10% fetal bovine serum (FBS), 10 mM HEPES pH 7.35, 1 mM sodium pyruvate and 0.05 mM beta-mercaptoethanol, in a humidified 5% CO2 incubator at 37° C. For some experiments, islets were snap frozen in liquid nitrogen and stored frozen prior to analysis.
(§1) Lysis of cells or islets for SDS-PAGE and electrotransfer: After removal of media, cells were washed once with ice-cold PBS and lysed in RIPA buffer (10 mM Tris pH 7.4, 150 mM NaCl, 0.1% SDS, 1% NP40, 2 mM EDTA) plus protease inhibitor/phosphatase inhibitor cocktail (Sigma-Aldrich) or directly in Laemmli gel sample buffer. Lysates in RIPA buffer were immediately spun at 10,000 rpm for 10 min at 4° C. and the supernatants analyzed further or stored at −80° C. Islets that had been quick frozen were placed on ice and RIPA buffer containing protease inhibitor cocktail and phosphatase inhibitor was added. Lysis was carried out by gently pipetting or by syringe through a 30G needle. Total protein concentration in the lysate was determined by BCA or Bramhall assay, and 5-10 μg of samples prepared in SDS sample were resolved by SDS-PAGE in 4-12% Bis-Tris NuPAGE gels (Invitrogen) at 200 V for 30 min. Nonreducing gels were incubated in a solution containing 20 mM dithiothreitol (DTT) for 10 min at room temperature prior to electrotransfer.
(§2) Immunoblotting: Transfer membranes were rinsed once in TBST (15 mM Tris, 150 mM NaCl, 0.1% Tween-20), blocked using TST plus 5% BSA for 1 h at room temperature, and then washed four times (5 min each) in TBST. Primary antibody and secondary antibodies were diluted in TBST and each of […] incubations was 1 h at room temperature followed by 4 washes in TBST. On occasion, primary antibodies were incubated overnight at 4° C. Secondary antibodies were all HRP-conjugates. Development of immunoblots used enhanced chemiluminescence (Immobilon, Millipore, or SuperSignal West Pico PLUS, Thermo Fisher Scientific) with images captured using a Fotodyne gel imager.
Islet Isolation: Islets were isolated by collagenase P (Roche) perfusion as described following by histopaque-1077 (Sigma-Aldrich, Inc. St. Louis) gradient purification. Islets were handpicked and studied directly or after overnight culture in RPMI 1640 medium (Corning 10-040-CV) supplemented with 10% FBS, 1% penicillin/streptomycin, 100 μg/m1 primocin, 10mM Hepes, and 1mM sodium pyruvate.
Islet Western Blotting: Isolated islets were lysed in RIPA buffer (10 mM Tris pH 7.4, 150 mM NaCl, 0.1% SDS, 1% NP-40, 2mM EDTA) with protease and phosphatase inhibitors (Fisher Scientific) on ice for 10 min and lysates were collected after centrifugation at 4° C. for 10 min at 12000 g. Samples were prepared in Laemmli sample buffer without (non-reducing) or with (reducing) 5% β-mercaptoethanol. After boiling for 5 min, samples were analyzed by SDS-PAGE (4-12% Bis-Tris gel, (Bio-Rad Laboratories, Inc.)) and transferred to nitrocellulose membranes (Bio-Rad Laboratories, Inc.). […]

INS1E cells = assay: Proinsulin disulfide-linked complexes in INS1E cells, nonreducing/reducing SDS-PAGE and immunoblotting (mAb CCI-17); format: cell-based, rat; settings: INS1E cells
Method: HEK293T human cells lines were cultured in DMEM supplemented with 10% FBS and penicillin/streptomycin.
as §1, with “Islets that had been quick frozen were placed on ice and RIPA buffer containing protease inhibitor cocktail and phosphatase inhibitor was added.” left out, “Total protein concentration in the lysate was determined by BCA or Bramhall assay, and 5-10 μg of samples prepared in SDS sample were resolved by SDS-PAGE in 4-12% Bis-Tris NuPAGE gels (Invitrogen) at 200 V for 30 min.” left out
The lane was then laid horizontally on top of a 10% SDS-polyacrylamide resolving gel and sealed in place in stacking gel. A single-tooth comb was introduced at one end of the stacking gel to introduce a one-dimensional reduced sample of proinsulin containing cell lysate (which runs as proinsulin monomer). The gel was run at 200 V for 45 mins in Tris-Glycine buffer pH 8.8 with electrotransfer as described above.
as §2

islets = assay: Analysis of oxidative stress in islets (CellROX Deep Red, Hoechst 33342); format: cell-based, mouse; settings: islets after 30 wks HFD, menadione 10 μM, 3 h
Method: Analysis of Oxidative Stress: Islets were plated onto CellCarrier™-96 ultra microplates (Perkin Elmer) in phenol red-free RPMI 1640 medium supplemented with 10% FBS, 1% penicillin/streptomycin, 100 μg/ml primocin, 10mM Hepes, and 1 mM sodium pyruvate one day prior to staining. Islets were treated with menadione (AdipoGen Life Science, 10 μM) for 3 h at 37° C. Islets were stained with CellROX® Deep Red reagent (Molecular Probes, C10422, 100 μM) and Hoechst 33342 (Invitrogen, 10 μg/ml) for 1 h at the same time. Islets were washed three times with HBSS and incubated in HBSS for imaging while temperature and CO2 were controlled. […]
Because ER stress is linked with oxidative stress, the inventors tested whether Pdia1 deletion confers increased sensitivity to oxidants by treating islets (isolated after 30 wks of HFD) with the vitamin K analogue menadione, which can render cells susceptible to apoptosis by increasing cytosolic calcium with nuclear condensation. […] In FIG. 21B, quantification of ROS mean intensity is shown. CellROX Deep Red mean intensity (divided by area) was measured by image J software. […] In FIG. 21C, quantification of nuclear mean area (μm^2) measured in Hoechst 33342 stained images by ImageJ software is shown. […] Quantification of the ratio of HMW proinsulin complexes (a) to monomeric proinsulin under reducing conditions is shown in graph (lower). […]

[2] = islets, NEM treatment to alkylate free sulfhydryls

SMILES: C[C@H]1CCC/C=C/[C@@H]2C[C@H](O)C[C@H]2[C@H](O)/C=C/C(=O)O1 [BFA, brefeldin A]
proinsulin complex formation [1]: significantly increased proinsulin complex formation

SMILES: C#CCNc1nc(NCCNC(=O)CCl)nc(N(C)CCCCc2ccccc2)n1 [KSC-34]
HMW proinsulin complexes, combination with menadione (mouse pancreatic islets; WT murine islets, KSC-34 3 h then menadione 100 μM 1 h): recapitulated the effect of Pdia1 deletion upon menadione treatment
HMW proinsulin complexes (mouse pancreatic islets; WT murine islets, KSC-34 alone, 3 h): slightly increased HMW complexes

SMILES: CCN1C(=O)C=CC1=O [N-ethylmaleimide]
HMW proinsulin-containing complexes (mouse pancreatic islets; [2]): slightly increased the HMW proinsulin-containing complexes
disulfide-linked proinsulin oligomers (mouse pancreatic islets; [2]): slightly reduced the disulfide-linked oligomers

SMILES: CC(C)NCCCn1c(Sc2cc(Cl)cc(Cl)c2)nc2c(N)ncnc21 [PU-WS13]
proinsulin disulfide-linked complex formation triggered by acute loss of BiP (INS1E cells; PU-WS13 20 μM 24 h, SubAB during last 3 h): did not exacerbate the proinsulin disulfide-linked complex formation
proinsulin disulfide-linked complex formation (INS1E cells; PU-WS13 20 μM, 24 h): did not promote proinsulin disulfide-linked complex formation

SMILES: C[C@@H]1C[C@@H]([C@H](O)CC2CC(=O)NC(=O)C2)C(=O)[C@@H](C)C1 [cycloheximide]
proinsulin complex formation [1]: did not significantly affect the results

nuclear size (Hoechst 33342) (islets): promoted nuclear condensation
SMILES: CC1=CC(=O)c2ccccc2C1=O [menadione]
ROS (CellROX Deep Red stain) (islets): significantly increased ROS
HMW proinsulin complexes (49-198 kDa), increase by Pdia1 deletion vs WT islets (mouse pancreatic islets; islets after 37 wks HFD, menadione 100 μM, 1 h): this effect was even greater in islets treated with menadione
